Test results taken from patent US20220257569A1, “INDOLE-OXADIAZOLE COMPOUNDS AND THEIR THERAPEUTIC USE” (THE GOVERNING COUNCIL OF THE UNIVERSITY OF TORONTO, priority 2018, published 2022).

How the values were obtained:
[1] = molecular target: T1, cannabinoid CB1 receptor (Homo sapiens, UniProt P21554); assay: PathHunter β-Arrestin assay (allosteric inhibition of agonist Emax); type: cell-based; settings: HEK293 CB1 β-arrestin cells; concentration of modulator giving 50% reduction in agonist Emax; 60 min pre-incubation
T1 construct: host or cells: HEK293 CB1 β-arrestin cells
T1 sequence (P21554 whole entry): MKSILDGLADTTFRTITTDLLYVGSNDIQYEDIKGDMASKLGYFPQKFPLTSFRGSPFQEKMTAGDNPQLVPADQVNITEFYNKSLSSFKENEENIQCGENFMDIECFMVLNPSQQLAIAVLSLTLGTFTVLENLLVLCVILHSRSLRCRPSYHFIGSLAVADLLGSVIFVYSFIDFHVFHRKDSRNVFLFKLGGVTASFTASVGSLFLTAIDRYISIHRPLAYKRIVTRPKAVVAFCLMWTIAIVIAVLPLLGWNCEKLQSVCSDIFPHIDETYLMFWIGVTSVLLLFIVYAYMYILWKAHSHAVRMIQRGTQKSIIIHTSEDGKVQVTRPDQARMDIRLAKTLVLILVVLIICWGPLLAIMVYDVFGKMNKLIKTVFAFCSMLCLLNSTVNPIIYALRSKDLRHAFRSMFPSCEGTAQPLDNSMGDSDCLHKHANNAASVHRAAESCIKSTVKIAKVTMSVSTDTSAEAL
Description: PathHunter™ enzyme fragment complementation is the most important method to measure β-arrestin recruitment. PathHunter™ β-Arrestin assays developed by DiscoveRX are revolutionary high-throughput screening assays for monitoring GPCR activation following ligand stimulation, without an imaging instrument, fluorescent protein tag, or radioactivity.
Instead, the assays detect GPCR activation through binding of β-arrestin to the expressed GPCR of interest, and measure the interaction of the two proteins using enzyme fragment complementation (EFC). The EFC approach offers a range of benefits for screening, including signal amplification and robust performance.
The larger portion of β-gal, termed EA for enzyme acceptor, is fused to the C-terminus of β-arrestin. The smaller, complementing fragment of β-gal, the ProLink™ tag, is expressed as a fusion protein with the GPCR of interest at the C-terminus. Upon activation, the GPCR is bound by β-arrestin. The interaction of β-arrestin and the GPCR forces the interaction of ProLink and EA, thus allowing complementation of the two fragments of β-gal and the formation of a functional enzyme capable of hydrolyzing substrate and generating a […] signal.
Using the PathHunter™ CB1 kit from DiscoveRX, a cannabinoid CB1 receptor agonist is added and activates the receptor, EA, which is fused to the C-terminus of β-arrestin, and then interacts with the ProLink™ tag which is fused to the CB1 receptor. This will result in the […] signal that is recorded by a luminescence plate reader. The […] signal is directly related to the activation of the receptor, therefore a higher concentration of agonist will yield a larger […] signal. The cannabinoid agonist is added in increasing concentrations to obtain an agonist dose response curve. With pre-incubation of a potential allosteric modulator, either an enhancement of agonist activity with an allosteric enhancer or a decrease in the maximal response of the agonist with an allosteric inhibitor is expected.
All raw data are obtained as luminescence (relative light units), and are normalised and presented as a percentage of the maximal response for the cannabinoid CB1 receptor agonist CP55,940 (2-[(1R,2R,5R)-5-hydroxy-2-(3-hydroxypropyl)cyclohexyl]-5-(2-methyloctan-2-yl)phenol).
The PathHunter™ β-Arrestin assay (from DiscoveRX, Fremont, USA) was performed as follows. HEK293 CB1 β-arrestin cells were plated 48 hours before use and incubated at 37° C., 5% CO2 in a humidified incubator. Test compounds were dissolved in dimethylsulfoxide (DMSO) and diluted in optimized cell culture (OCC, as supplied by DiscoveRX) media to the required concentrations. 5 μL of test compound or vehicle solution was added to each well and incubated for 60 minutes at 37° C., 5% CO2 in a humidified incubator. 5 μL of increasing concentrations of anandamide was added to each well followed by a 90-minute incubation at 37° C., 5% CO2 in a humidified incubator. 55 μL of detection reagent (as supplied by DiscoveRX) was then added, followed by a further 90 minute incubation at room temperature in the dark. Chemiluminescence, reported in relative light units (RLU—a dimensionless value, standardised as a % of maximum stimulation with anandamide), was measured on a standard luminescence plate reader.
Data were plotted as % of maximal stimulation (Emax) caused by agonist versus the logarithm of concentration of agonist, in the presence or absence of a fixed concentration of test compound (modulator) or vehicle. For example, stimulation in the presence of agonist alone will give a value for stimulation expressed in RLU, which can be expressed as a range from 0% (at lowest agonist concentration, e.g., 1 nM) to 100% (at the highest agonist concentration, e.g., 10 μM). […]

IC50 [1] [nM]	melting point [°C]	Compound
3	235 to 237	Clc1ccc2[nH]c(-c3nnc(NCCc4ccccc4)o3)cc2c1 [ABM318, 5-(5-Chloro-1H-indol-2-yl)-N-phenethyl-1,3,4-oxadiazol-2-amine]
270	210 to 212	Cc1c(-c2nnc(SCc3ccc(F)cc3)o2)[nH]c2ccc(Cl)cc12 [ABM339, 2-(5-Chloro-3-methyl-1H-indol-2-yl)-5-((4-fluorobenzyl)thio)-1,3,4-oxadiazole]
1	170 to 172	CCc1c(-c2nnc(NCCc3ccccc3)o2)[nH]c2ccc(Br)cc12 [ABM320, 5-(5-Bromo-3-ethyl-1H-indol-2-yl)-N-phenethyl-1,3,4-oxadiazol-2-amine]
1	195 to 197	Cc1c(-c2nnc(NCCc3ccccc3)o2)[nH]c2ccc(Cl)cc12 [ABM319, 5-(5-Chloro-3-methyl-1H-indol-2-yl)-N-phenethyl-1,3,4-oxadiazol-2-amine]
1	248 to 250	CCc1c(-c2nnc(Nc3ccc(F)cc3)o2)[nH]c2ccc(Cl)cc12 [ABM335, 5-(5-Chloro-3-ethyl-1H-indol-2-yl)-N-(4-fluorophenyl)-1,3,4-oxadiazol-2-amine]
172	184 to 186	c1ccc(CCSc2nnc(-c3cc4ccccc4[nH]3)o2)cc1 [ABM334, 2-(1H-Indol-2-yl)-5-(phenethylthio)-1,3,4-oxadiazole]
12	218 to 220	CCc1c(-c2nnc(NCc3ccccc3)o2)[nH]c2ccc(Br)cc12 [ABM316, N-Benzyl-5-(5-bromo-3-ethyl-1H-indol-2-yl)-1,3,4-oxadiazol-2-amine]
1	240 to 242	CCc1c(-c2nnc(Nc3ccccc3)o2)[nH]c2ccc(Br)cc12 [ABM312, 5-(5-Bromo-3-ethyl-1H-indol-2-yl)-N-phenyl-1,3,4-oxadiazol-2-amine]
–	170 to 172	CCc1c(-c2nnc(SCCCc3ccccc3)o2)[nH]c2ccc(Cl)cc12 [ABM330, 2-(5-Chloro-3-ethyl-1H-indol-2-yl)-5-((3-phenylpropyl)thio)-1,3,4-oxadiazole]
–	181 to 183	CCc1c(-c2nnc(SCc3ccc(OC)cc3)o2)[nH]c2ccc(Br)cc12 [ABM309, 2-(5-Bromo-3-ethyl-1H-indol-2-yl)-5-((4-methoxybenzyl)thio)-1,3,4-oxadiazole]
105	245 to 247	Clc1ccc2[nH]c(-c3nnc(NCc4ccccc4)o3)cc2c1 [ABM314, N-Benzyl-5-(5-chloro-1H-indol-2-yl)-1,3,4-oxadiazol-2-amine]
315	185 to 186	CCc1c(-c2nnc(SCCc3ccccc3)o2)[nH]c2ccc(Br)cc12 [ABM325]
263	179 to 180	Cc1c(-c2nnc(SCCCc3ccccc3)o2)[nH]c2ccc(Cl)cc12 [ABM323, 2-(5-Chloro-3-methyl-1H-indol-2-yl)-5-((3-phenylpropyl)thio)-1,3,4-oxadiazole]
68	210 to 212	COc1ccc(CSc2nnc(-c3[nH]c4ccc(Cl)cc4c3C)o2)cc1 [ABM301, 2-(5-Chloro-3-methyl-1H-indol-2-yl)-5-((4-methoxybenzyl)thio)-1,3,4-oxadiazole]
1	256 to 258	Cc1c(-c2nnc(Nc3ccc(F)cc3)o2)[nH]c2ccc(Cl)cc12 [ABM337, 5-(5-Chloro-3-methyl-1H-indol-2-yl)-N-(4-fluorophenyl)-1,3,4-oxadiazol-2-amine]
56	179 to 181	CCc1c(-c2nnc(SCc3ccc(OC)cc3)o2)[nH]c2ccc(Cl)cc12 [ABM331, 2-(5-Chloro-3-ethyl-1H-indol-2-yl)-5-((4-methoxybenzyl)thio)-1,3,4-oxadiazole]

IC50 [1] [nM]	melting point [°C]	Compound
0.5	175 to 177	CCc1c(-c2nnc(NCCc3ccccc3)o2)[nH]c2ccc(Cl)cc12 [ABM317, 5-(5-Chloro-3-ethyl-1H-indol-2-yl)-N-phenethyl-1,3,4-oxadiazol-2-amine]
7	220 to 222	Cc1c(-c2nnc(NCc3ccccc3)o2)[nH]c2ccc(Cl)cc12 [ABM315, N-Benzyl-5-(5-chloro-3-methyl-1H-indol-2-yl)-1,3,4-oxadiazol-2-amine]
417	222 to 224	Cc1c(-c2nnc(SCCc3ccccc3)o2)[nH]c2ccc(Cl)cc12 [ABM322, 2-(5-Chloro-3-methyl-1H-indol-2-yl)-5-(phenethylthio)-1,3,4-oxadiazole]
2	268 to 270	Cc1c(-c2nnc(Nc3ccccc3)o2)[nH]c2ccc(Cl)cc12 [ABM311, 5-(5-Chloro-3-methyl-1H-indol-2-yl)-N-phenyl-1,3,4-oxadiazol-2-amine]
93	215 to 216	Cc1c(-c2nnc(SCc3ccccc3)o2)[nH]c2ccc(Cl)cc12 [ABM321, 2-(Benzylthio)-5-(5-chloro-3-methyl-1H-indol-2-yl)-1,3,4-oxadiazole]
–	178 to 180	c1ccc(CSc2nnc(-c3cc4ccccc4[nH]3)o2)cc1 [ABM333, 2-(Benzylthio)-5-(1H-indol-2-yl)-1,3,4-oxadiazole]
85	195 to 197	CCc1c(-c2nnc(SCc3ccc(C)cc3)o2)[nH]c2ccc(Cl)cc12 [ABM332, 2-(5-Chloro-3-ethyl-1H-indol-2-yl)-5-((4-methylbenzyl)thio)-1,3,4-oxadiazole]
30	183 to 185	CCc1c(-c2nnc(SCc3ccccc3)o2)[nH]c2ccc(Br)cc12 [ABM305, 2-(Benzylthio)-5-(5-bromo-3-ethyl-1H-indol-2-yl)-1,3,4-oxadiazole]
67	201 to 203	CCc1c(-c2nnc(SCc3ccc(C)cc3)o2)[nH]c2ccc(Br)cc12 [ABM327, 2-(5-Bromo-3-ethyl-1H-indol-2-yl)-5-((4-methylbenzyl)thio)-1,3,4-oxadiazole]
–	134 to 135	CCc1c(-c2nnc(SCCCc3ccccc3)o2)[nH]c2ccc(Br)cc12 [ABM326, 2-(5-Bromo-3-ethyl-1H-indol-2-yl)-5-((3-phenylpropyl)thio)-1,3,4-oxadiazole]
3	272 to 274	Clc1ccc2[nH]c(-c3nnc(Nc4ccccc4)o3)cc2c1 [ABM310, 5-(5-Chloro-1H-indol-2-yl)-N-phenyl-1,3,4-oxadiazol-2-amine]
930	–	CCc1c(-c2nnc(SCCc3ccccc3)o2)[nH]c2ccc(Cl)cc12 [ABM329, 2-(5-Chloro-3-ethyl-1H-indol-2-yl)-5-(phenethylthio)-1,3,4-oxadiazole]
–	212 to 214	Cc1ccc(CSc2nnc(-c3[nH]c4ccc(Cl)cc4c3C)o2)cc1 [ABM324, 2-(5-Chloro-3-methyl-1H-indol-2-yl)-5-((4-methylbenzyl)thio)-1,3,4-oxadiazole]
5	265 to 267	Fc1ccc(Nc2nnc(-c3cc4cc(Cl)ccc4[nH]3)o2)cc1 [ABM336, 5-(5-Chloro-1H-indol-2-yl)-N-(4-fluorophenyl)-1,3,4-oxadiazol-2-amine]
12	216 to 218	CCc1c(-c2nnc(NCc3ccccc3)o2)[nH]c2ccc(Cl)cc12 [ABM313, N-Benzyl-5-(5-chloro-3-ethyl-1H-indol-2-yl)-1,3,4-oxadiazol-2-amine]
